According to US20150272939A1, “Identification of Small Molecule Inhibitors of Jumonji AT-Rich Interactive Domain 1A (JARID1A) and 1B (JARID1B) Histone Demethylase” (Yale University, priority 2012, published 2015):
Where a name gives a salt, the structure may show the parent alone. Read-outs that look alike come from different tables or passages of the source.

Columns and labels:
[1] = AlphaScreen counterscreen against bio-H3K4me2 peptide in the absence of enzyme (artifact signal); settings: for Artifact Signal (percent): effect of the compound when incubated with bio-H3K4me2 peptide (counterscreen, no enzyme); for Artifact signal: effect of the compound when it is incubated with bio-H3K4me2 peptide: counterscreen, no enzyme;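 on all read-outs here: counterscreen run without enzyme against bio-H3K4me2 peptide to remove false positive hits from the JARID1 demethylase AlphaScreen screen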
JARID1B = molecular target: T1, JARID1B (Homo sapiens, UniProt Q9UGL1); test: FLAG-JARID1B histone demethylase assay with AlphaScreen detection (HTS and dose response); type: biochemical; settings: for Assay − Artifact Signal (percent): assay signal minus artifact signal; for Inhibitory effect (percent) / inhibition at 20 µM: high-throughput screen, compound 20 μM; for Assay Signal (percent) / Validation result of HTS active: effect of the compound in the JARID1B AlphaScreen demethylase assay: validation of HTS actives; for Assay Signal (percent): effect of compound in JARID1B AlphaScreen assay; for inhibition at 20 µM: read-out: Inhibitory effect (percent); for Validation result of HTS active: effect of the compound in the JARID1B AlphaScreen demethylase assay: total signal before subtraction of artifact signal;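 on Assay Signal (percent): compound tested at 20 µM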;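 on Assay − Artifact Signal (percent): compound tested at 20 µM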;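 on all read-outs here: FLAG-tagged JARID1B at 4 nM acting on a biotinylated H3K4me3 peptide, demethylation read by AlphaScreen luminescence, with hits checked against bio-H3K4me2 without enzyme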
T1 construct: The FLAG tagged full length JARID1B enzyme was expressed in Sf21 insect cells using FLAG-JARID1B baculoviruses; FLAG (N); made in house; host or cells: Sf21 insect cells (baculovirus)
T1 sequence (Q9UGL1 whole entry): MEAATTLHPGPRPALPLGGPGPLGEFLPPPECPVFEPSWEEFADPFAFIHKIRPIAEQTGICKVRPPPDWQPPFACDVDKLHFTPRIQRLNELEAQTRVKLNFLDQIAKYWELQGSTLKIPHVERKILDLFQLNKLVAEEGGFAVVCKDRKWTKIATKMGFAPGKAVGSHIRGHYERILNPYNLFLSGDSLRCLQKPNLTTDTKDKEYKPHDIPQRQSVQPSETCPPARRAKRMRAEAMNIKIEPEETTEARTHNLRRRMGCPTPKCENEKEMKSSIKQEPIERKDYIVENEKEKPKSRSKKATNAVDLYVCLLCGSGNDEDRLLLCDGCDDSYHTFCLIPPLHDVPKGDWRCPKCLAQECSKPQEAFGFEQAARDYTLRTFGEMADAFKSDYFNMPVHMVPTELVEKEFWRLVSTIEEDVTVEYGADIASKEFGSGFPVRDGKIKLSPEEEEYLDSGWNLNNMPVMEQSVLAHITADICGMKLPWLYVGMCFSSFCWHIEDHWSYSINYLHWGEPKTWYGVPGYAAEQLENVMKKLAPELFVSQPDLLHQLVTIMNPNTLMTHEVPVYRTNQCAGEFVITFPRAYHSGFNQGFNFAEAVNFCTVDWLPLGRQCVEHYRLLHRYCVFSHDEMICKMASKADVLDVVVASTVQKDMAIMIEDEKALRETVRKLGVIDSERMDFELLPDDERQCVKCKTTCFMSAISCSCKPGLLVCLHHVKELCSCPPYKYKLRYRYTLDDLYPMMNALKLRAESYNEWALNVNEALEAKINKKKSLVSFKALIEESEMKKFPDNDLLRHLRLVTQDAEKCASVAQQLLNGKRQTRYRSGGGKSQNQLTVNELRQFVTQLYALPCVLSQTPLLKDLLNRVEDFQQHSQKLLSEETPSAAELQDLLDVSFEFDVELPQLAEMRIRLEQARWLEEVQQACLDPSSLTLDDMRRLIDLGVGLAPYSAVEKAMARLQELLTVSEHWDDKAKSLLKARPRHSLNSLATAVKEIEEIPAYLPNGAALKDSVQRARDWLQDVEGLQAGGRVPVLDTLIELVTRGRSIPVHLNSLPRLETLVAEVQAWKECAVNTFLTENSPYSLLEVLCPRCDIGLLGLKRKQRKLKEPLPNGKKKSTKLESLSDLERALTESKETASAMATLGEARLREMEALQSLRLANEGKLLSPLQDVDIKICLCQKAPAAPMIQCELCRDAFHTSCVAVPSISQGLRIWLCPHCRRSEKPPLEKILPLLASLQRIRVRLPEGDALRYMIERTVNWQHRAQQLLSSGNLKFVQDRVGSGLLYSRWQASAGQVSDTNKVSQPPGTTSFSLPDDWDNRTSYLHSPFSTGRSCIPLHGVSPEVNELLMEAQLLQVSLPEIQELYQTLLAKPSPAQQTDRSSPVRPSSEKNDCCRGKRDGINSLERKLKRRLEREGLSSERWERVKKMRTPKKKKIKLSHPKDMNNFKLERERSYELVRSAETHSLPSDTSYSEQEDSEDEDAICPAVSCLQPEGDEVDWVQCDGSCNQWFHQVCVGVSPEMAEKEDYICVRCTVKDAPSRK

[2] = standard demethylase conditions (10 μM α-KG, 50 μM Fe (II))

Molecule | Artifact Signal (percent) [1] [%] | Assay − Artifact Signal (percent) (JARID1B) [%] | Assay Signal (percent) (JARID1B) [%] | inhibition at 20 µM (JARID1B; [2]) [%] | Artifact signal: effect of the compound when it is incubated with bio-H3K4me2 peptide [1] | Validation result of HTS active: effect of the compound in the JARID1B AlphaScreen demethylase assay (JARID1B) | inhibition at 20 µM (JARID1B; IDs marked *: additional hits under reaction condition with 1 mM α-KG) [%] | Inhibitory effect (percent) (JARID1B; [2]) [%]
S=C(Nc1cccc(Cl)c1Cl)Nn1cnnc1 [YU149002] | 3.30 | 12.28 | 15.58 | 37.9 |  |  |  | 
O=C(O)c1cccc(NCc2ccncc2)c1 [YU145461] | 0.89 | 95.48 | 96.37 | 94.6 |  |  |  | 
C[C@@](Cc1ccc(O)c(O)c1)(NN)C(=O)O [YU034292, CARBIDOPA, reference compound] | 53.76 | 26.51 | 80.27 | 100 |  |  |  | 
O=C(O)CC(CC(=O)Nc1cc(C(F)(F)F)ccc1N1CCOCC1)c1ccccc1 (stereo not drawn) [YU016748] | 11.20 | 8.43 | 19.64 | 104 |  |  |  | 
C[n+]1cc2c3c(ccc2c2ccc4cc5c(cc4c21)OCO5)OCO3.O=S(=O)([O-])O [YU155443, SANGUINARINE SULFATE, reference compound] | −11.85 | 17.36 | 5.51 |  |  |  |  | 62.80
O=C(NNC(=S)NCC1CCCO1)c1ccccn1 (stereo not drawn) [YU148374] | 22.77 | 54.50 | 77.28 | 84.8 |  |  |  | 
CCOc1c(O)ccc(C=O)c1[N+](=O)[O-] [YU145037] |  |  |  | 66.1 | −1.09 | −4.02 |  | 
BACITRACIN [YU033699, reference compound] |  |  |  |  | −1.65 | 6.01 |  | 74.07
O=C(O)CCCSCC(=O)Nc1ccccc1 [YU146590] | 2.50 | 10.85 | 13.35 | 60.2 |  |  |  | 
CN1CCc2cccc3c2C1Cc1ccc(O)c(O)c1-3 (stereo not drawn) [YU033696, APOMORPHINE HYDROCHLORIDE, reference compound] | 8.29 | 58.49 | 66.78 | 89.4 |  |  |  | 
O=C1c2ccccc2C(=O)c2c(NCCc3ccc(O)cc3)ccc(NCCc3ccc(O)cc3)c21 [YU019467, BML-266, reference compound] | 55.18 | 20.91 | 76.09 |  |  |  | 42.1 | 
Cc1cc(OCc2nc3ccccc3s2)ccc1N [YU147615] | 0.54 | 13.88 | 14.43 | 40.4 |  |  |  | 
COc1cc(C(=S)N2CC(C)OC(C)C2)cc(OC)c1O (stereo not drawn) [YU151441] | −3.82 | 16.81 | 12.98 | 30.8 |  |  |  | 
Cc1cc(-c2ccc(NC(=O)CCC(=O)O)c(C)c2)ccc1NC(=O)CCC(=O)O [YU104987] |  |  |  | 55.2 | 3.17 | 7.41 |  | 

Second part, led by results:

Artifact Signal (percent) [1] [%] | Assay − Artifact Signal (percent) (JARID1B) [%] | Assay Signal (percent) (JARID1B) [%] | inhibition at 20 µM (JARID1B; [2]) [%] | Artifact signal: effect of the compound when it is incubated with bio-H3K4me2 peptide [1] | Validation result of HTS active: effect of the compound in the JARID1B AlphaScreen demethylase assay (JARID1B) | inhibition at 20 µM (JARID1B; IDs marked *: additional hits under reaction condition with 1 mM α-KG) [%] | Molecule | Inhibitory effect (percent) (JARID1B; [2]) [%]
24.32 | 54.26 | 78.58 |  |  |  |  | CARMINIC ACID [YU155214, reference compound] | 65.23
8.44 | 51.44 | 59.88 | 63.9 |  |  |  | O=C(O)c1cc(O)c(O)c(O)c1 [YU155562, GALLIC ACID, reference compound] | 
 |  |  | 41.5 | −6.86 | −1.53 |  | O=C(NCc1ccccn1)c1ccc(NC(=O)c2ccco2)cc1 [YU152560] | 
 |  |  | 40.7 | 5.46 | 5.76 |  | CN(C)CCCn1cc(C2=C(c3c[nH]c4ccccc34)C(=O)NC2=O)c2ccccc21 [YU154851, GF 109203X, reference compound] | 
36.24 | 11.14 | 47.38 | 56 |  |  |  | Oc1c(C(Nc2ccccc2Cl)c2cccnc2)ccc2cccnc12 (stereo not drawn) [YU172164] | 
7.97 | 48.87 | 56.84 | 56.5 |  |  |  | COc1cccc(O)c1O [YU155465, 3-METHOXYCATECHOL, reference compound] | 
17.14 | 11.21 | 28.35 | 54.2 |  |  |  | CCOc1c(CNc2ccc(N3CCCC3)cc2)cccc1OC [YU153287] | 
 |  |  | 53 | 20.10 | 24.86 |  | O=C(Nc1ccc(N2CCCC2)c(C(=O)O)c1)c1ccc(Br)cc1 [YU208200] | 
 |  |  | 40 | 37.31 | 44.79 |  | Cc1ccc(NC(c2cccnc2)c2ccc3cccnc3c2O)cc1C (stereo not drawn) [YU172173] | 
−0.08 | 10.41 | 10.32 | 44.5 |  |  |  | Cc1ccc(C(=O)Nc2cnc(N3CCN(c4ccccc4Cl)CC3)c(C(=O)O)c2)cc1 [YU208246] | 
8.32 | 30.24 | 38.57 | 50.3 |  |  |  | O=C(O)c1cc(N(Cc2ccccc2O)Cc2cc(O)ccc2O)ccc1O [YU154829, LAVENDUSTIN A, reference compound] | 
3.56 | 37.18 | 42.73 | 83.1 |  |  |  | Clc1ccc2nc(-c3ccccn3)c(Nc3ccc4c(c3)OCO4)n2c1 [YU173003] | 
 |  |  | 73.2 | −5.30 | −1.03 |  | COc1cc2cc3c4cc(OC)c(OC)cc4cc[n+]3c(C)c2cc1OC.[Cl-] [YU155528, CORALYNE CHLORIDE, reference compound] | 
5.71 | 43.69 | 49.40 | 51.6 |  |  |  | Cc1nn2c(=O)[nH]c3sc4c(c3c2nc1=O)CC(C)(C)OC4 [YU152236] | 
5.21 | 17.87 | 23.08 | 53.7 |  |  |  | N#CC(C#N)=Cc1cc(O)c(O)c(O)c1 [YU154832, TYRPHOSTIN 25, reference compound] | 
 |  |  | 43.4 | 20.21 | 24.80 |  | CCC(=O)Nc1ccc(N(C)CCCc2c(C)nn(C)c2C)c(C(=O)O)c1 [YU208228] | 
